According to PMC12006963, “Application of Deuterium in an M1 Positive Allosteric Modulator Back-Up Program: The Discovery of VU6045422” (ACS Chemical Neuroscience, 2025):

Experiments:
Potassium Channel [KATP] = Potassium Channel [KATP] (Cricetus cricetus, UniProt Q09427); assay: Eurofins radioligand binding; parameters: species or system Hamster
CYP = assay: Time-dependent CYP inhibition; format: in vitro ADME; settings: in words
Histamine H1 = Histamine H1 (Homo sapiens, UniProt P35367); assay: Eurofins radioligand binding
Tachykinin NK1 = Tachykinin NK1 (Homo sapiens, UniProt P25103); assay: Eurofins radioligand binding
Adenosine A2A = Adenosine A2A (Homo sapiens, UniProt P29274); assay: Eurofins radioligand binding
[1] = target: Platelet Activating Factor (PAF) (Homo sapiens, UniProt P25105); assay: Eurofins radioligand binding
Imidazoline I2, Central = assay: Eurofins radioligand binding; parameters: species or system Rat
GABAA, Muscimol, Central = assay: Eurofins radioligand binding; parameters: species or system Rat
[2] = GSH trapping in microsomes; format: in vitro ADME; settings: rat, dog, cyno, and human microsomes
Glutamate, NMDA, Agonism = assay: Eurofins radioligand binding; parameters: species or system Rat
Prostanoid EP4 = Prostanoid EP4 (Homo sapiens, UniProt P35408); assay: Eurofins radioligand binding
Histamine H3 = Histamine H3 (Homo sapiens, UniProt Q9Y5N1); assay: Eurofins radioligand binding
Chain of Histamine H3 (Q9Y5N1 whole entry): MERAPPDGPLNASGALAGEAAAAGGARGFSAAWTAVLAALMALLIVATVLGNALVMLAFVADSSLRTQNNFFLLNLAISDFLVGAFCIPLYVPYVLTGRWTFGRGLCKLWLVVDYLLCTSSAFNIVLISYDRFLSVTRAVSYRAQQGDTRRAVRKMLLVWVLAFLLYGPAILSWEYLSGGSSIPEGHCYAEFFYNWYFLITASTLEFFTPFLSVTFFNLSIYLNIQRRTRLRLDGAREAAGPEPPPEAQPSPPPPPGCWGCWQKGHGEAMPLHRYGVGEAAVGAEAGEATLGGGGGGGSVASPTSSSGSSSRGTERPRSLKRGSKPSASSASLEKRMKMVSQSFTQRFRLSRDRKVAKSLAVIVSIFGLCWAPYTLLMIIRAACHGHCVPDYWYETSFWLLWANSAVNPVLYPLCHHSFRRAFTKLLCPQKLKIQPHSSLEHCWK

Chain of Histamine H1 (P35367 whole entry): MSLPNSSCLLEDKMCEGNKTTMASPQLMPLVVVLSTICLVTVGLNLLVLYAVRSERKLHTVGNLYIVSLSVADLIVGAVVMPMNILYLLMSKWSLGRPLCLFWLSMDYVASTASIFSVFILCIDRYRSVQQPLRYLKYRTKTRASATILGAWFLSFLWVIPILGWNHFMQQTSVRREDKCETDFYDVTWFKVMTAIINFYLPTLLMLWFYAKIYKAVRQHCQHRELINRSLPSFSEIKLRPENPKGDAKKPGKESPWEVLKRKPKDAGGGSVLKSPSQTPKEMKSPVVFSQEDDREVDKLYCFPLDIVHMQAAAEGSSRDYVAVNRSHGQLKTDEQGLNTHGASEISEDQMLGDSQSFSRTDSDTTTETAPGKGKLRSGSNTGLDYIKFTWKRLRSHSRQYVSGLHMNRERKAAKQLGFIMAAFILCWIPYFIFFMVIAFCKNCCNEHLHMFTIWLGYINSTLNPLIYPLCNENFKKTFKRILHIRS
Chain of Tachykinin NK1 (P25103 whole entry): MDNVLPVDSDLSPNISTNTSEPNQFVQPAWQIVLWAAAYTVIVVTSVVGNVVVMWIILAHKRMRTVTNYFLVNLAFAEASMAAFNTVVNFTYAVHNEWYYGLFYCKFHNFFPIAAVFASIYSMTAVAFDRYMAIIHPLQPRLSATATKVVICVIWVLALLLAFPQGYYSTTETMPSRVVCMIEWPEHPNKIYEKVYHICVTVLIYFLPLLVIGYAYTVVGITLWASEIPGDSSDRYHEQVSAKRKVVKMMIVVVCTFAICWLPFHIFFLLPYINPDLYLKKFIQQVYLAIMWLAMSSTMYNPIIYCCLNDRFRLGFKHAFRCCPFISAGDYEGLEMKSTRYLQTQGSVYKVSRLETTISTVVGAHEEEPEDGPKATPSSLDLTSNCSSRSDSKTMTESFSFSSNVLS
Chain of Prostanoid EP4 (P35408 whole entry): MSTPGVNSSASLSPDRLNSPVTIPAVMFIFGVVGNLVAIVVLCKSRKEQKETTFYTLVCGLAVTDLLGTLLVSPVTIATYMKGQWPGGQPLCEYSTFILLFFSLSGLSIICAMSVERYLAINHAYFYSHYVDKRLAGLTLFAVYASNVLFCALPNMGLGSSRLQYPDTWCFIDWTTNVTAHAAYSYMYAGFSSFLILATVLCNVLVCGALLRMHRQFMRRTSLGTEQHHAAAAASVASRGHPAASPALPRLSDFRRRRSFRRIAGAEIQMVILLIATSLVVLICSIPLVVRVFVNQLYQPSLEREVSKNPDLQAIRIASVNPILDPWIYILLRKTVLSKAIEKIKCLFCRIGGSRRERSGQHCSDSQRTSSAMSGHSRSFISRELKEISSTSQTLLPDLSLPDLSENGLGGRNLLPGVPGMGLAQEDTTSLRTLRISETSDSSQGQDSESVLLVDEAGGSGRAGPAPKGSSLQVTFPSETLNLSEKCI
Chain of Platelet Activating Factor (PAF) (P25105 whole entry): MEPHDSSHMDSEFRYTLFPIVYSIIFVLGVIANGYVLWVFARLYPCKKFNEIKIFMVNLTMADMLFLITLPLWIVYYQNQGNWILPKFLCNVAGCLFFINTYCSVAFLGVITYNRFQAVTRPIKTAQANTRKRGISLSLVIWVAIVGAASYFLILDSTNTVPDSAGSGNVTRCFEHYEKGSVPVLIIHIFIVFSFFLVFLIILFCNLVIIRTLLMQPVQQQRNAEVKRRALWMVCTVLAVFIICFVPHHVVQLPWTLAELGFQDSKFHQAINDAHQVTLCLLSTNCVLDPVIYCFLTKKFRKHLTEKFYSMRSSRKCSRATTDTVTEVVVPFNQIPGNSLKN
Chain of Potassium Channel [KATP] (Q09427 whole entry): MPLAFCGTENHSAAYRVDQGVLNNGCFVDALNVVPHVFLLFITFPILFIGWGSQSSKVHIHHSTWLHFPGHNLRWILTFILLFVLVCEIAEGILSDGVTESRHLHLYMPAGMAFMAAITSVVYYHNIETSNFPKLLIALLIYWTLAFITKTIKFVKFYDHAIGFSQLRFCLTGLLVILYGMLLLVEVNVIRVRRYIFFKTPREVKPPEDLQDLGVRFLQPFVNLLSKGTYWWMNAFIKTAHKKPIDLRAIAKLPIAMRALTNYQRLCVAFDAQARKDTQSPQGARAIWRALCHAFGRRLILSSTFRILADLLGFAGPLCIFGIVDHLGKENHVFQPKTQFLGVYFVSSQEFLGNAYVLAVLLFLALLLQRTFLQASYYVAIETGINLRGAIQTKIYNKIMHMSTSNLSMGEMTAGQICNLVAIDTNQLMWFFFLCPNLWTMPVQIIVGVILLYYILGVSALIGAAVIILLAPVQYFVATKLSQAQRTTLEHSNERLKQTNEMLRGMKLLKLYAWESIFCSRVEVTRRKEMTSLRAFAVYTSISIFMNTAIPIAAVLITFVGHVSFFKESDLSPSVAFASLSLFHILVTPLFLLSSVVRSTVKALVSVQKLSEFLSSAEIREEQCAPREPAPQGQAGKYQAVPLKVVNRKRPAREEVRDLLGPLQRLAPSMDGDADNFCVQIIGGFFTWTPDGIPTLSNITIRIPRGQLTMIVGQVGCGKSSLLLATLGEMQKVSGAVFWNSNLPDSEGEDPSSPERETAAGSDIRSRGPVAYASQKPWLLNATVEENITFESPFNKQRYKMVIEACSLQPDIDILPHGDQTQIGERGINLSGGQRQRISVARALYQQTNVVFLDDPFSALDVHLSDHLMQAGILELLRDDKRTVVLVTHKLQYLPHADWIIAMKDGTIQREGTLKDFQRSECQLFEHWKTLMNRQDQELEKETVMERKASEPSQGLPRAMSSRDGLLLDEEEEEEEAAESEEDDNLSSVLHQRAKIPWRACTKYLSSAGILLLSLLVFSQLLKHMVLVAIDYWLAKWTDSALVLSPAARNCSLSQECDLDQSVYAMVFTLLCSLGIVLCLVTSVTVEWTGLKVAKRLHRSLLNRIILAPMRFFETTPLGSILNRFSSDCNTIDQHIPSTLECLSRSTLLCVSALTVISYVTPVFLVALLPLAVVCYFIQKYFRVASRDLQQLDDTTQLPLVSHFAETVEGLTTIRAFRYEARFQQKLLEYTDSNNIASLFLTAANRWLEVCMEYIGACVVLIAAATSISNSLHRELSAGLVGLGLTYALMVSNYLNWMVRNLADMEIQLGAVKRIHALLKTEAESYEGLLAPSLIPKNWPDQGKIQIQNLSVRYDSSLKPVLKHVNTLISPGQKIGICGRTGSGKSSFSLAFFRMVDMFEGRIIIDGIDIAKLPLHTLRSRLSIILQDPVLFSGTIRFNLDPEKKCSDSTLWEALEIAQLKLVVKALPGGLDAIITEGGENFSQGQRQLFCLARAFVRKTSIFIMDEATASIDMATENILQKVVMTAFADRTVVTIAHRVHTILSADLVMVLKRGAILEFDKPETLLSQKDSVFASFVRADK
Chain of Adenosine A2A (P29274 whole entry): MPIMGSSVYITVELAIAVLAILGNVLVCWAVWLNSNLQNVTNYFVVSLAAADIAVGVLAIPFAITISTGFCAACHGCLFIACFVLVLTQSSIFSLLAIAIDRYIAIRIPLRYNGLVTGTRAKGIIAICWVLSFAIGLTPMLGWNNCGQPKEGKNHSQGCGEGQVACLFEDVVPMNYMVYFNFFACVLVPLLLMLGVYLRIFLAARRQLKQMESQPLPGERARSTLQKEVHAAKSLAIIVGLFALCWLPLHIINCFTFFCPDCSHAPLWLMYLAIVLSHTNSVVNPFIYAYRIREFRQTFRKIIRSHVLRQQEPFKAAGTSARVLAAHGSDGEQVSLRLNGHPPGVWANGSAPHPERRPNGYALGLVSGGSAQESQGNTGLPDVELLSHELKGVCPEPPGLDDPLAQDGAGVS

For `[2H]C1([2H])c2ncccc2C(=O)N1Cc1c(F)cc(-c2cccc3nn(C([2H])([2H])[2H])cc23)cc1F` [compound 5], the inhibition at 10 µM (Potassium Channel [KATP]) was 24%, the “time-dependent CYP inhibition liability” value (CYP) was “no time-dependent CYP inhibition or CYP induction liabilities” and the inhibition at 10 µM (Histamine H1) was 2%. It also gave an inhibition at 10 µM (Tachykinin NK1) of 4%, an inhibition at 10 µM (Adenosine A2A) of 7% and an inhibition at 10 µM [1] of 22%. The “% Inhibition at 10 µM” value (Imidazoline I2, Central) was 59%, the “% Inhibition at 10 µM” value (GABAA, Muscimol, Central) was 0% and the “conjugation in GSH trapping studies” value [2] was under 0.1%. For the same molecule, the “% Inhibition at 10 µM” value (Glutamate, NMDA, Agonism) was 3%, the inhibition at 10 µM (Prostanoid EP4) was -3% and the inhibition at 10 µM (Histamine H3) was 5%.
